Here are results for 15 compounds from patent US9133186B2, “Hetero ring-fused imidazole derivative having AMPK activating effect” (Shionogi & Co., Ltd., priority 2010, dated 2015).

For experiment [1], the target named is T1, human AMPK α1β1γ1 enzyme (Homo sapiens, UniProt Q13131+Q9Y478).
T1 construct: purchased Carna Biosciences, Inc
As to the kind of experiment: AMPK activator evaluation, Test Example 1 (mobility shift, FL-Peptide 7). It counts as biochemical. The following applies: human AMPK α1β1γ1, control without compound = 100%; for Emax: read-out: Emax (maximum rate of increase in activity within the measurement range). As for the experimental part:
To a buffer solution consisting of a 50 mM HEPES-NaOH buffer solution (pH 7.0), 100 mM NaCl, 10 mM magnesium chloride, 0.1% bovine serum albumin, 0.2 mM sodium orthovanadate(V), 1 mM ethylene glycol-bis(2-aminoethyl ether)-N,N,N′,N′-tetraacetic acid (EGTA), 5 mM disodium (3-glycerophosphate and 2 mM dithiothreitol, a human AMPK α1β1γ1 enzyme (manufactured by Carna Biosciences, Inc.) was added in an amount to give a conversion rate of approximately 10% by reaction for 2 hours, and a compound dissolved in DMSO was added thereto so as to have a 1% DMSO concentration. The obtained liquid was left to stand for 10 minutes.
To the liquid, a substrate solution consisting of a 50 mM HEPES-NaOH buffer solution (pH 7.0), 100 mM NaCl, 10 mM magnesium chloride, 0.1% bovine serum albumin, 0.2 mM sodium orthovanadate(V), 1 mM ethylene glycol-bis(2-aminoethyl ether)-N,N,N′,N′ tetraacetic acid (EGTA), 5 mM disodium β-glycerophosphate, 2 mM dithiothreitol, 0.4 mM ATP and 3 μM FL-Peptide 7 (manufactured by Caliper Life Sciences, Inc.) was added in equal amount (10 μl in total). The obtained liquid was allowed to react at 25° C. for 2 hours, and 10 μl of 20 mM EDTA was then added thereto to stop the reaction.
(§1) To detect phosphorylated fluorescent substrates, the reaction liquid was applied to a measuring device, LabChip EZ Reader II manufactured by Caliper Life Science, Inc., for detecting fluorescence by using differences in mobility due to differences in charge. The setting conditions for the device were pressure, −1.5 PSI; upstream voltage, −2250 V; downstream voltage, −400 V; post sample buffer sip time, 40 seconds; final delay, 120 seconds; and peak order, Product First.

The target of experiment [2] is T2, Human AMPK α2β2γ1 (Homo sapiens, UniProt O43741+P54646).
T2 construct: The full length cDNAs of human AMPK P2 (NM_005399.3) and human AMPK α2 (NM_006252.3); 6×His (N); made in house; host or cells: Escherichia coli BL21 CodonPlus (DE3)-RIL
T2 sequence (P54646 whole entry): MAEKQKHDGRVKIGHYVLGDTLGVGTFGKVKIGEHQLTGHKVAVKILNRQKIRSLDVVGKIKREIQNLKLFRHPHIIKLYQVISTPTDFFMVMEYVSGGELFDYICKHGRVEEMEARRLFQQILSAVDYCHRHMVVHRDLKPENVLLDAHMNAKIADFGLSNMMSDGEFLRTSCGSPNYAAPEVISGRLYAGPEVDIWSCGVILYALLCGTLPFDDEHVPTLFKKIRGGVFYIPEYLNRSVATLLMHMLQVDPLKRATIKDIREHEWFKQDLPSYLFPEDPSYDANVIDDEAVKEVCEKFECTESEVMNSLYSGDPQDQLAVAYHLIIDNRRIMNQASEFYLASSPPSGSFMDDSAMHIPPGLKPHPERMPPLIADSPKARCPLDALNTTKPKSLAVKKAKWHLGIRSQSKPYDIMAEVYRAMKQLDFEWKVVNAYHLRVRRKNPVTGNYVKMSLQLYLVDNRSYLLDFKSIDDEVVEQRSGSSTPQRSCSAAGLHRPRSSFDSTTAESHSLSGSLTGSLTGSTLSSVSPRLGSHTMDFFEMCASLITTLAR
T2 sequence (O43741 whole entry): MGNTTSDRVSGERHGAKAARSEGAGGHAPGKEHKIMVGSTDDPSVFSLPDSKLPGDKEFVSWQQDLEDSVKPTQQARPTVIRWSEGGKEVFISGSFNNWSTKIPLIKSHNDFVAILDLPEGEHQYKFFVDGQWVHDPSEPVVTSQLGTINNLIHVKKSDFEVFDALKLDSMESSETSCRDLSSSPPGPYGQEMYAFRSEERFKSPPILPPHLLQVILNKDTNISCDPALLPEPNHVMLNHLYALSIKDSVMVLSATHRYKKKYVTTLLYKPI
T2 sequence (P54619 whole entry partner): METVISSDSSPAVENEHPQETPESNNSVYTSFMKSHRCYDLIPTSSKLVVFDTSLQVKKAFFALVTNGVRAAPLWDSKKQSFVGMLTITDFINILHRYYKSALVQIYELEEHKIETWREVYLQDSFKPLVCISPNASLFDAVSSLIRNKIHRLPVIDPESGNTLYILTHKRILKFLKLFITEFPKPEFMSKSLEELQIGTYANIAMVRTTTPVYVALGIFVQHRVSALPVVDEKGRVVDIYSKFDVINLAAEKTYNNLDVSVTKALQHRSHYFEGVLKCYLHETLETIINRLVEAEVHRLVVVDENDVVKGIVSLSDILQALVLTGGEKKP
As to the kind of experiment: AMPK activator evaluation, Test Example 2 (CaMKK2-phosphorylated enzyme, mobility shift). It counts as biochemical. The following applies: human AMPK α2β2γ1 phosphorylated with CaMKK2, control = 100%; for Emax: read-out: Emax (maximum rate of increase in activity within the measurement range). The method, then:
The full length cDNAs of human AMPK P2 (NM_005399.3) and human AMPK α2 (NM_006252.3) were inserted into the MCS1 and MCS2 of the pETDuet-1 vector to prepare a human AMPK β2 and human AMPK α2 (6×His tag at the 5′ terminus) expressing plasmid. The plasmid was contransfected with an expression plasmid, in which the full length cDNA of human AMPK γ1 (NM_002733.3) had been inserted into pET28b(+), into BL21 CodonPlus (DE3)-RIL to obtain an expression strain. The expression strain was cultured in TB medium, followed by induction with 0.5 mM IPTG, and cultured at 25° C. for 3 hours and then harvested. After ultrasonication, supernatant was collected and applied to Histrap column (GE) and RESOUECE Q 6 ml column (GE) to prepare 12.5 mg of purified sample containing three types of subunit from 1.8 L of broth.
An expression vector, in which the full length cDNA of human CAMKK β (NM_172226.1) had been inserted into pGEX-6P-3, was transfected into BL21 Star (DE3). The expression strain was cultured in TB medium, followed by induction with 0.5 mM IPTG, and cultured at 25° C. for 3 hours and then harvested. After ultrasonication, supernatant was collected and applied to GSTrap FF column (GE) to prepare 14 mg of GST-fused CAMKK β from 720 ml of broth.
Thus, phosphorylation treatment was carried out as pretreatment.
Human AMPK α2β2γ1 in an amount to give a conversion rate of approximately 10% by reaction for 2 hours, and CaMKK2 in an amount capable of sufficiently imparting activity to AMPK for one hour were mixed in a buffer solution consisting of a 50 mM HEPES-NaOH buffer solution (pH 7.0), 100 mM NaCl, 5 mM magnesium chloride, 0.1% bovine serum albumin, 0.2 mM sodium orthovanadate(V), 1 mM ethylene glycol-bis(2-aminoethyl ether)-N,N,N′,N′-tetraacetic acid (EGTA), 5 mM disodium β-glycerophosphate, 1 mM dithiothreitol and 0.2 mM ATP, and the obtained liquid was left to stand at 25° C. for 1 to 1.5 hours to sufficiently phosphorylate AMPK.
After that, to the enzyme liquid, which had been subjected to phosphorylation treatment, a compound dissolved in DMSO was added so as to have a 1% DMSO concentration. The obtained liquid was left to stand for 10 minutes.
To the liquid, a substrate solution consisting of a 50 mM HEPES-NaOH buffer solution (pH 7.0), 100 mM NaCl, 10 mM magnesium chloride, 0.1% bovine serum albumin, 0.2 mM sodium orthovanadate(V), 1 mM ethylene glycol-bis(2-aminoethyl ether)-N,N,N′,N′-tetraacetic acid (EGTA), 5 mM disodium glycerophosphate, 2 mM dithiothreitol, 0.4 mM ATP and 3 μM FL-Peptide 7 (manufactured by Caliper Life Sciences, Inc.) was added in equal amount (10 μl in total). The obtained liquid was allowed to react at 25° C. for 2 hours, and 10 μl of 20 mM EDTA was then added thereto to stop the reaction.
as §1
A conversion rate was calculated from the peak heights of the resulting substrate and product. The conversion rate when not containing a compound was used as a control, and a concentration dependent curve was made by plotting the rate of increase in activity to the control at each concentration of a compound.

T1 sequence (Q13131 10-559 limits assumed): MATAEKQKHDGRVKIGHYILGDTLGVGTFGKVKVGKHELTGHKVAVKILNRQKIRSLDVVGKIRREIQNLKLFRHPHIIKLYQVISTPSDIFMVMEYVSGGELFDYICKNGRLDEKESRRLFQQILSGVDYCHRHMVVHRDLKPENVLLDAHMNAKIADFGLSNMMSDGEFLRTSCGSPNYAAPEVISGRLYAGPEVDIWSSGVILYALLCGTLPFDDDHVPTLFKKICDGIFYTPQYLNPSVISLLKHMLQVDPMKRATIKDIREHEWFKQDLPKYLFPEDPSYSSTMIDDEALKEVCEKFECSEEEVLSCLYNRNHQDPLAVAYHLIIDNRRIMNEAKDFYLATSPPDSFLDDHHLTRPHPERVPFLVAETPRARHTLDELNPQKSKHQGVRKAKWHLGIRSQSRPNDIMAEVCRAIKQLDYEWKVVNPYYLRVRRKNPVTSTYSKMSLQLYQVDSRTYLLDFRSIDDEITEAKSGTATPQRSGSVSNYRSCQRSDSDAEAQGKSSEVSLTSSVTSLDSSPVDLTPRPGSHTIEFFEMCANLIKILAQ
T1 sequence (Q9Y478 whole entry): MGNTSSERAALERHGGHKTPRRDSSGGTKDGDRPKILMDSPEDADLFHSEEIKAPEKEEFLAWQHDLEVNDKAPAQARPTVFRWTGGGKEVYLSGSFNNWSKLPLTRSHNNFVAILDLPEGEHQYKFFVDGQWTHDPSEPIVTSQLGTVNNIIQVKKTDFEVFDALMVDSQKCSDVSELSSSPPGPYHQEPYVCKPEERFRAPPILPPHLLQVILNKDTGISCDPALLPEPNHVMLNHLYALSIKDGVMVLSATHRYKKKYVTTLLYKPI
T1 sequence (P54619 whole entry partner): as the sequence (P54619 whole entry partner) above

With `CC(=O)NC(C)(C)c1ccc(Oc2nc3nc(-c4ccc(N5CCC(O)C5)cc4)c(Cl)cc3[nH]2)cc1` [Compound D-49], the “EC150 (compound concentration showing 150% relative to the control)” value in experiment [1] is given as 3.5 nM; in experiment [2] it was 54 nM. Moreover, the Emax is 263% in experiment [1] and 420% in experiment [2].
On the same counts, the results for `O=C(O)C1(c2ccc(Oc3nc4nc(-c5ccc(N6CCCC6)cc5)c(Cl)cc4[nH]3)cc2)CC1` [Compound C-94] are 12 nM, 59 nM, 352% and 325%.
On the same counts, the results for `Cc1ncc(Oc2nc3nc(-c4ccc(N5CCOCC5)cc4)c(Cl)cc3[nH]2)cn1` [Compound C-106] are 690 nM, 580 nM, 278% and 290%.
The corresponding values for `Cc1ccc(C(=O)O)cc1Oc1nc2nc(-c3ccc(N4CCOCC4)cc3)c(Cl)cc2[nH]1` [Compound B-108] are 27 nM, 410 nM, 340% and 341%.
On to `Cc1ccc(Oc2nc3nc(-c4ccc(N5CCOCC5)cc4)c(Cl)cc3[nH]2)cn1` [Compound B-119], for which, in experiment [1], the “EC150 (compound concentration showing 150% relative to the control)” value was found to be 220 nM and the maximum response (Emax) stood at 265%. Also, in experiment [2], the “EC150 (compound concentration showing 150% relative to the control)” value is listed as 240 nM and the Emax was found to be 242%.
The corresponding values for `Cc1ccc(Oc2nc3cc(Cl)c(-c4ccc(-c5ccccc5O)cc4)nc3[nH]2)cc1C(=O)O` [Compound C-4] are 0.42 nM, 355%, 4.3 nM and 292%.
The corresponding values for `Cc1ccc(Oc2nc3nc(-c4ccc5c(ccn5C)c4)c(Cl)cc3[nH]2)cc1C(=O)O` [Compound A-2] are 7 nM, 408%, 74 nM and 406%.
With `Cc1ccc(Oc2nc3nc(-c4ccc(N5CCOCC5)cc4)c(Cl)cc3[nH]2)cc1C(N)=O` [Compound C-12], the “EC150 (compound concentration showing 150% relative to the control)” value is listed as 140 nM in experiment [1] and 130 nM in experiment [2]. Also, the Emax in experiment [1] was 256%; in experiment [2], 293%.
On the same counts, the results for `O=C(O)c1ccc(Oc2nc3nc(-c4ccc(N5CCOCC5)cc4)c(Cl)cc3[nH]2)cc1` [Compound B-101] are 120 nM, 1300 nM, 269% and 212%.
Regarding `Cc1ccc(Oc2nc3nc(-c4ccc(-c5ccccc5)cc4)c(Cl)cc3[nH]2)cc1C(=O)O` [Compound B-22], in experiment [1], the “EC150 (compound concentration showing 150% relative to the control)” value is 13 nM and the Emax amounted to 339%.
As for `CC(C)(C(N)=O)c1ccc(Oc2nc3nc(-c4ccc(N5CCOCC5)cc4)c(Cl)cc3[nH]2)cn1` [Compound D-7], in experiment [1], the “EC150 (compound concentration showing 150% relative to the control)” value was determined as 1600 nM and the Emax was determined as 285%.
On the same counts, the results for `CC(C)(C)C(=O)NC(C)(C)c1ccc(Oc2nc3nc(-c4ccc(N5CCOCC5)cc4)c(Cl)cc3[nH]2)cc1` [Compound D-65] are 42 nM and 252%.
On the same counts, the results for `COC(=O)NC(C)(C)c1ccc(Oc2nc3nc(-c4ccc(N5CCOCC5)cc4)c(Cl)cc3[nH]2)cn1` [Compound D-56] are 68 nM and 211%.
On the same counts, the results for `NS(=O)(=O)c1ccc(Oc2nc3nc(-c4ccc(N5CCOCC5)cc4)c(Cl)cc3[nH]2)cc1` [Compound B-133] are 360 nM and 234%.
With `CNc1ncc(Oc2nc3nc(-c4ccc(N5CCOCC5)cc4)c(Cl)cc3[nH]2)cn1` [Compound D-31], in experiment [1], the “EC150 (compound concentration showing 150% relative to the control)” value came to 19 nM and the maximal response (Emax) was determined as 314%.

The term Emax denotes the size of the effect at its maximum, as opposed to the concentration needed.
